Data published in patent US7381542B2, “Nucleic acids encoding a biogenic amine receptor” (Oregon Health & Science University, priority 2001, dated 2008).
“Also recorded” adds a separate entry of the source. Where two headings read alike, the source gives them in different places.

Assays:
rat trace amine receptor = biological target: T1, rat trace amine receptor (Rattus norvegicus, UniProt Q923Y9, L170Q/L53I/P183L/R211E/S15R); assay: cell-based; type: cell-based; settings: for Emax: HEK293, percent of stimulation by p-tyramine, read-out: Maximal Stimulation (% ± SEM)
T1 construct: expression vector containing the full-length rat cDNA clone described above; expressed in transfected cells
T1 sequence (Q923Y9 whole entry S15R/L53I/L170Q/P183L/R211E): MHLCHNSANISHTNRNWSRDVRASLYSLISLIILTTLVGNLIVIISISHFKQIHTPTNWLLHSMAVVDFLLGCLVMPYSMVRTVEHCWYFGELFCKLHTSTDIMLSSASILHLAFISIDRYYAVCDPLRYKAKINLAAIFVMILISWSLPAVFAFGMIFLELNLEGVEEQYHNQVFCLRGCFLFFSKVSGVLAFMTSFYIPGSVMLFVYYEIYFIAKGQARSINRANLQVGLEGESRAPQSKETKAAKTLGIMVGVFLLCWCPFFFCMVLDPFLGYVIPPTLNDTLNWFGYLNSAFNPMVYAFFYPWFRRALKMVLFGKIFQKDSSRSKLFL

[1] = test system: HEK 293 cells transfected with pcDNA3.1; assay: MAP kinase pathway luciferase reporter in control HEK 293 cells transfected with pcDNA3.1 without receptor; type: cell-based, human; settings: compared with cells incubated in the absence of the ligand
Description: (§1) Control cells were transfected with pcDNA3.1 without the rat trace amine receptor sequences. All cells were also co-transfected with 2 additional constructs: one (elk-gal) that encoded the yeast transcription factor gal under the transcriptional control of an Elk-responsive promoter, and another encoding firefly luciferase under the transcriptional control of a gal-responsive promoter.

[2] = biological target: T2, human trace amine receptor (Homo sapiens, UniProt Q96RJ0, S183L/Y279S); assay: MAP kinase pathway (Elk-gal/luciferase reporter) stimulation in HEK 293 cells transfected with H2-3 pcDNA3.1; type: cell-based; settings: compared with cells incubated in the absence of the ligand; receptor-transfected HEK 293 cells
T2 construct: expressed in transfected cells; host or cells: HEK 293 cells, pcDNA 3.1 vector (construct H2-3 pcDNA3.1)
T2 sequence (Q96RJ0 1-339 S183L/Y279S): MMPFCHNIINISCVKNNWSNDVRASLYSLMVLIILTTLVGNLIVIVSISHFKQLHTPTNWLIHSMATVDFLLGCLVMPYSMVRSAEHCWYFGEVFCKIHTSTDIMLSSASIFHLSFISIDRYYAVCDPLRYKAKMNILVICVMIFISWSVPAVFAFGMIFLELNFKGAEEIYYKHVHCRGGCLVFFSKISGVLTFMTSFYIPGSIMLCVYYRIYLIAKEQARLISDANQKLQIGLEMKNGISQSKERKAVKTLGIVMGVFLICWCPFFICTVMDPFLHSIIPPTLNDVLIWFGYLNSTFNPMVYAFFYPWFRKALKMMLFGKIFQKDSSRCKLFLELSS
Description: as §1

[3] = Table III, cAMP, 1 hour at 37° C., 100 μM IBMX, read-out: EC50 (nM ± SEM)
[4] = untitled table after Table III, drugs, read-out: EC50 (nM), DRUGS
[5] = untitled table after Table III, first value column, read-out: EC50 (nM), NEUROTRANSMITTERS, first column
[6] = untitled table after Table III, second value column, read-out: EC50 (nM), NEUROTRANSMITTERS, second column (no head of its own)
[7] = EC50 (nM), NEUROTRANSMITTERS, first column
[8] = EC50 (nM), NEUROTRANSMITTERS, second column (no head of its own)

**Q.** How did the EC50 (rat trace amine receptor; [3]) turn out when `CN1CC=C(c2ccccc2)CC1` [MPTP, 1-methyl 4phenyl-1,2,3,6-tetrahydropyridine] was run?
**A.** The EC50 was 99 ± 11 nM.

**Q.** Which “fold stimulation (luciferase), pcDNA3.1” value [1] does the source give for `C=CCN1CCc2c(cc(O)c(O)c2Cl)C(c2ccccc2)C1` (centres unmarked) [SKF82958] here?
**A.** Its value is 0.79 fold.

**Q.** For `COc1ccc(CCN)cc1` [p-methoxy PEA], which EC50 (rat trace amine receptor; [4]) is on record?
**A.** The EC50 was 346 nM.

**Q.** With `NCCc1ccccc1` [Phenethylamine, β-phenethylamine] as the compound, how does the EC50 (rat trace amine receptor; [3]) read?
**A.** Its EC50 is 237 ± 71 nM.

**Q.** And the EC50 (rat trace amine receptor; [5])?
**A.** The EC50 was 218 nM.

**Q.** What about the EC50 (rat trace amine receptor; [6]) of the same compound?
**A.** Its EC50 is 124 nM.

**Q.** Which EC50 (rat trace amine receptor; EC50 (nM ± SEM)) does the source give for `NCCc1ccc(O)cc1` [p-tyramine] here?
**A.** The EC50 was 69 ± 9 nM.

**Q.** And the EC50 (rat trace amine receptor; EC50 (nM), DRUGS)?
**A.** The EC50 was 20.2 nM.

**Q.** What about the EC50 (rat trace amine receptor; [7]) of the same compound?
**A.** Its EC50 is 44.9 nM.

**Q.** And the EC50 (rat trace amine receptor; [8])?
**A.** The EC50 was 82 nM.

**Q.** What about the Emax (rat trace amine receptor; Table III) of the same compound?
**A.** Its Emax is 100%.

**Q.** `CN[C@@H](C)Cc1ccccc1` [S-methamphetamine] was tested. Which EC50 (rat trace amine receptor; [4]) did it give?
**A.** Its EC50 is 188 nM.

**Q.** How did the “activation of the trace amine receptor (cAMP production), in words” value (shortened to “activation of the trace amine receptor”) (rat trace amine receptor) turn out when `COc1cc(CC(=O)O)ccc1O` [homovanillic acid, 3-methoxy4-hydroxyphenylacetic acid] was run?
**A.** Its value is “no detectable activity”.

**Q.** What does the source list for `NCC(O)c1ccc(O)cc1` (centres unmarked) [Octopamine]?
**A.** EC50 (rat trace amine receptor; EC50 (nM ± SEM)): 1300 ± 350 nM; EC50 (rat trace amine receptor; [7]): 874 nM; EC50 (rat trace amine receptor; [8]): 1400 nM

**Q.** `N[C@@H](CCC(=O)O)C(=O)O` [glutamate] was tested. Which “activation of the trace amine receptor” value (rat trace amine receptor) did it give?
**A.** Its value is “not activated”.

**Q.** How did the “fold stimulation (luciferase), H2-3 pcDNA3.1” value [2] turn out when `NCCc1c[nH]c2ccc(O)cc12` [5-hydroxytryptamine] was run?
**A.** Its value is 1.22 fold.

**Q.** And the “fold stimulation (luciferase), pcDNA3.1” value [1]?
**A.** Its value is 1 fold.

**Q.** And the Emax (rat trace amine receptor; Table III)?
**A.** The Emax was 47 ± 9%.

**Q.** What about the EC50 (rat trace amine receptor; [3]) of the same compound?
**A.** The EC50 was 12800 ± 4180 nM.

**Q.** And the EC50 (rat trace amine receptor; [5])?
**A.** Its EC50 is 1910 nM.

**Q.** What about the EC50 (rat trace amine receptor; [6]) of the same compound?
**A.** Its EC50 is 8000 nM.

**Q.** How did the EC50 (rat trace amine receptor; [3]) turn out when `CNCC(O)c1ccc(O)cc1` (centres unmarked) [Synephrine] was run?
**A.** The EC50 was 584 ± 100 nM.

**Q.** How did the EC50 (rat trace amine receptor; [4]) turn out when `CN[C@H](C)Cc1ccccc1` [R-methamphetamine] was run?
**A.** Its EC50 is 236 nM.

**Q.** Which “potency relative to precursor catecholamines dopamine, norepinephrine, epinephrine” value (rat trace amine receptor) does the source give for `CNCC(O)c1ccc(O)c(OC)c1` (stereo not drawn) [metanephrine, 3-methoxy-β-4-dihydroxy-N-methyl-β-phenethylamine] here?
**A.** Its value is “significantly more potent; also recorded: more potently activated”.

**Q.** With `COc1cc(CCN)ccc1O` [3-methoxytyramine] as the compound, how does the “potency relative to precursor catecholamines dopamine, norepinephrine, epinephrine” value (rat trace amine receptor) read?
**A.** The value was “significantly more potent; also recorded: more potently activated”.

**Q.** `COc1cc(C(O)CN)ccc1O` (stereo not drawn) [normetanephrine, 3-methoxy-β-4-dihydroxy-β-phenethylamine] was tested. Which “potency relative to precursor catecholamines dopamine, norepinephrine, epinephrine” value (rat trace amine receptor) did it give?
**A.** The value was “significantly more potent; also recorded: more potently activated”.

**Q.** `NCCc1cccc(O)c1` [m-tyramine] was tested. Which EC50 (rat trace amine receptor; [3]) did it give?
**A.** The EC50 was 5370 ± 1180 nM.

**Q.** What about the EC50 (rat trace amine receptor; [5]) of the same compound?
**A.** Its EC50 is 7190 nM.

**Q.** And the EC50 (rat trace amine receptor; [6])?
**A.** The EC50 was 5800 nM.

**Q.** How did the “activation of the trace amine receptor” value (rat trace amine receptor; listed as dihydroergotsmnine) turn out when `CN1C[C@H](C(=O)N[C@]2(C)O[C@@]3(O)[C@@H]4CCCN4C(=O)[C@H](Cc4ccccc4)N3C2=O)C[C@@H]2c3cccc4[nH]cc(c34)C[C@H]21` [dihydroergotamine] was run?
**A.** Its value is “stimulate camp production”.

**Q.** For `NCCc1c[nH]c2ccccc12` [Tryptamine], which EC50 (rat trace amine receptor; [3]) is on record?
**A.** The EC50 was 309 ± 76 nM.

**Q.** And the EC50 (rat trace amine receptor; [5])?
**A.** Its EC50 is 248 nM.

**Q.** And the EC50 (rat trace amine receptor; [6])?
**A.** The EC50 was 519 nM.
